The record followed here is patent US9994901B2, “Pro-inflammatory mediators in diagnosis and treatment of chronic obstructive pulmonary disease” (The Regents of the University of Colorado, priority 2012, dated 2018).

One assay concerns human monocytes. Briefly: Human monocytes cultured on fibronectin, IL-6 by ELISA (FIG. 12). Type of assay: cell-based. As to conditions: FN+20 mM aspirin vs FN. The text has this:
Experiments summarized in the top of FIG. 12 show culture of human monocytes on fibronectin (FN) induces several pro-inflammatory mediators as measured by ELISA.
Background: ELISA stands for enzyme-linked immunosorbent assay.

Another assay has as its system COPD patient monocytes. Briefly: COPD patient peripheral blood monocytes cultured on fibronectin, IL-8 production (FIG. 15). Type of assay: cell-based, human. On the procedure:
FIG. 15. […] Graphically depicted are the results from treating human monocytes cultured on fibronectin with two different TP antagonist. […] Some fibronectin cultured cells were treated with the thromboxane receptor antagonist Pinane Thromboxane (PTA2). For PTA2 treatment, the concentration utilized is 7.5 μM.
Some fibronectin cultured cells were treated with the thromboxane receptor antagonist Pinane Thromboxane (PTA2). For PTA2 treatment, the concentration used was 7.5 μM.

For a further assay, the system named is Arhgef1-/- mice. Briefly: Arhgef1-/- mice treated with TP antagonist, RT-PCR of BAL cells and lung tissue (FIGS. 9, 10). The note with it: time course, single dose. It counts as in vivo, mouse. The text has this: Arhgef1 is an intracellular signaling molecule which has been shown specifically to modulate signaling from Gα12/13 coupled receptors. […] We have identified that thromboxane receptor signaling is required for fibronectin induced MMP-9 expression in wild type and Arhgef1-deficient cells. Treatment of Arhgef1-deficient mice with a thromboxane receptor antagonist results in a consistent and reproducible reduction in MMP-9 expression and activity in the pulmonary compartment. […] Importantly treatment with a thromboxane receptor antagonist decreased expression of all of these mediators in the Arhgef1-deficient lungs. These findings were unexpected.
(§1) Treatment with a thromboxane receptor antagonist decreases the expression of pro-inflammatory mediators.

The next assay concerns human PB monocytes. The assay can be described thus: Human PB monocytes cultured on fibronectin 48 hrs, conditioned media ELISA (FIG. 3). It counts as cell-based. As to conditions: human PB monocytes (n=6) on fibronectin 48 hrs, PTA2 added; ELISA of conditioned media. On the procedure: FIG. 3. […] Fibronectin (FN) induces pro-inflammatory mediator in human PB monocytes. Monocytes (n=6) were cultured on plastic (ctl) or fibronectin (FN) for 48 hrs. Pinane thromboxane A2 (PTA2), a thromboxane receptor antagonist, was added to some FN cultures. Conditioned media was analyzed for indicated mediators by ELISA. *P<0.05 Students two tailed t-test compared to plastic.
In particular, murine macrophages promote inflammation via a signaling pathway that depends on thromboxane receptor signaling and that is repressed by ARHGEF1. Monocytes from a healthy individual similarly promote inflammation, as indicated by MMP-9, TNFα and MCP-1 production, and this is inhibited by a (commercially available research grade) thromboxane receptor antagonist (FIG. 3).
To facilitate this analysis, we used an ELISA-based platform developed by Meso Scale Discovery (MSD), Gaithersburg, Md. USA (www.mesoscale.com) that allows a multiplex format for the analysis of pro-inflammatory cytokines, chemokines, and matrix metalloproteases. This platform relies on proprietary detection and patterned arrays in a 96-well format and that has an extremely large dynamic range enabling detection of these pro-inflammatory mediators from both biological samples (BAL fluid, serum, etc.) and tissue culture supernatant. An MSD plate reader (Sector Imager 2400) was used.

The test system of another assay is Arhgef1-/- animals. Briefly: Arhgef1-/- animals, inhalation of PTA2, BAL supernatant ELISA (FIG. 11). The note with it: ELISA 24 hr after a 1 hr inhalation exposure, vs vehicle. Type of assay: in vivo, mouse. On the procedure: FIG. 11. Panels A and B graphically depict the measurement of BAL pro-inflammatory mediators by ELISA in Arhgef1 deficient animals treated by inhalation of PTA2 or vehicle. […] Pro-inflammatory mediators were measured in BAL supernatant 24 hr after a 1 hr inhalation exposure to either vehicle (black bars on left sides, n=16) or PTA2 (grey bars on right sides, n=3).
as §1

Molecules are shown by their SMILES.

Consider `CC(=O)Oc1ccccc1C(=O)O` [aspirin], for which the “FN induced IL-6 production” value in the assay with human monocytes is on record as “reduced”.

Consider `CC1=C(C)C(=O)C(C(CCCCCC(=O)O)c2ccccc2)=C(C)C1=O` (centres unmarked) [Seratrodast, 7-phenyl-7-(2,4,5-trimethyl-3,6-dioxocyclohexa-1,4-dien-1-yl)heptanoic acid], for which the IL-8 production entry with COPD patient monocytes (monocytes from a COPD patient on fibronectin, Seratrodast 0.448, 2.24, 11.2 μM) is reported as “reduce IL-8 production”.

For `Cc1c(CC(C)(C)C(=O)O)n(Cc2ccc(Cl)cc2)c2ccc(F)cc12` [L655, 1-[(4-Chlorophenyl)methyl]-5-fluoro-α,α,3-trimethyl-1H-indole-2-propanoic acid], in the assay on Arhgef1-/- mice, the “expression of several pro-inflammatory mediators, RT-PCR of BAL cells” value is “decreases expression of several pro-inflammatory mediators” and the “expression of several pro-inflammatory mediators, RT-PCR of lung tissue” value is given as “decreases expression of several pro-inflammatory mediators”.

Regarding `CCCCC[C@@H](O)/C=C/[C@H]1C[C@H]2C[C@@H]([C@@H]1C/C=C\CCCC(=O)O)C2(C)C` (relative stereo) [PTA2, (1S-(1alpha,2beta(Z),3alpha(1E,3S*),5alpha))-7-(3-(3-Hydroxy-1-octenyl)-6,6-dimethylbicyclo(3.1.1)hept-2-yl)-5-heptenoic acid], in the assay with human PB monocytes, the “FN induced MCP-1” value is recorded as “dependent on TP signaling” and the “FN induced TNF-” value is “dependent on TP signaling”. The IL-8 production entry with COPD patient monocytes (monocytes from 3 COPD patients on fibronectin, PTA2 7.5 μM) is given as “reduce IL-8 production”. For the same molecule, the “production of several pro-inflammatory mediators in BAL supernatant” value with Arhgef1-/- animals is “reduces production of several pro-inflammatory mediators”.
